This note sets out measurements from US4316958A, “Process for producing optically active cephalosporin analogs” (Kyowa Hakko Kogyo Co., Ltd., priority 1979, dated 1982).

Converted amounts (≈) assume the structure as drawn. Like-named read-outs stand apart in the source and are kept apart here.

What all share (format): cell-based
A short description of assay [1]: antimicrobial activity (stated in words). An excerpt:
(§1) Antimicrobial activities of the compounds obtained in Reference Examples 1 and 2 are as follows. Heart Infusion Agar Dilution Method (pH 7.2) is used. A cephalosporin compound having the same acyl side chain corresponding to the dl-compound is used as a control. The compounds are identified as follows.

Assay [2] deals with Staphylococcus aureus Smith. Kind of assay: Heart Infusion Agar Dilution Method, antimicrobial activity (MIC). The text has this:
(§2) Heart Infusion Agar Dilution Method (pH 7.2) is used. A cephalosporin compound having the same acyl side chain corresponding to the dl-compound is used as a control. The compounds are identified as follows.

Assay [3] concerns Klebsiella pneumoniae 8045. Described as above. Particulars: Klebsiella pneumoniae, 8045, pH 7.2, Klebsiella pneumoniae 8045.
Source text: as §1

Assay [4] relates to Escherichia coli GN2411-5. The description is as above.
Source text: as §1

A further assay has as its system Proteus vulgaris 6897. The description is as above. As to conditions: Proteus vulgaris, 6897, pH 7.2, Proteus vulgaris 6897.
Source text: as §1

The next assay deals with Serratia marcescens T-55. Described as above.
Source text: as §1

For another assay, the system named is Proteus mirabilis 1287. The assay is described as above. Particulars: Proteus mirabilis, 1287, pH 7.2, Proteus mirabilis 1287.
Source text: as §1

A further assay deals with Pseudomonas putida 264. Described as above.
Source text: as §1

Another assay has as its system Escherichia coli Juhl. Described as above.
Source text: as §1

The subject of assay [5] is Pseudomonas aeruginosa #1. The assay is described as above.
Source text: as §1

In a further assay the test system is Proteus morganii KY 4298. Described as above.
Source text: as §1

Another assay concerns Serratia marcescens T-26. Described as above.
Source text: as §1

Assay [6] relates to Staphylococcus aureus 209-P. The description is as above.
Source text: as §1

The subject of another assay is Proteus rettgeri KY 4289. The description is as above. As to conditions: Providencia rettgeri, KY4289, pH 7.2.
Source text: as §1

Assay [7] relates to Pseudomonas aeruginosa 145. The assay is described as above. Particulars: Pseudomonas aeruginosa, 145, pH 7.2, Pseudomonas aeruginosa 145.
Source text: as §1

Assay [8] deals with Klebsiella pneumoniae Y-60. The description is as above.
Source text: as §1

A further assay deals with Escherichia coli NIHJC-2. The description is as above.
Source text: as §1

Assay [9] has as its system Staphylococcus epidermidis. The assay is described as above. Particulars: pH 7.2.
Source text: as §2

Setting [10] is: Escherichia coli, GN2411, pH 7.2, Escherichia coli GN2411-5, read-out: MIC.
[11] abbreviates: Serratia marcescens T-55, pH 7.2.
[12] abbreviates: Escherichia coli, pH 7.2, Escherichia coli Juhl, read-out: MIC.
Setting [13] is: Pseudomonas aeruginosa, pH 7.2, Pseudomonas aeruginosa #1, read-out: MIC.
Where [14] appears, read: Serratia marcescens, T26, pH 7.2, Serratia marcescens T-26, read-out: MIC.
[15] abbreviates: Staphylococcus aureus 209-P, pH 7.2.
Where [16] appears, read: Klebsiella pneumoniae, Y60, pH 7.2, Klebsiella pneumoniae Y-60, read-out: MIC.
Where [17] appears, read: Escherichia coli, NIHJC2, pH 7.2, Escherichia coli NIHJC-2, read-out: MIC.
The mark [18] stands for this setting: Morganella morganii, KY4298, pH 7.2, Proteus morganii KY 4298, read-out: MIC.

Turning to `CO/N=C(\C(=O)N[C@@H]1C(=O)N2C(C(=O)O)=C[C@@H](C)C[C@H]12)c1csc(N)n1` [B, (-)-cis-7β-[2-(2-amino-4-thiazolyl)-2-syn-methoxyiminoacetamido]-4α-methyl-1-azabicyclo[4,2,0]oct-2-en-8-on-2-carboxylic acid], the antimicrobial activity result in assay [1] is “strong antimicrobial activity”. For the same compound, the minimum inhibitory concentration (MIC) is 6.25 µg/mL (≈ 16.5 µM) in assay [2] (Staphylococcus aureus, pH 7.2, Staphylococcus aureus Smith, read-out: MIC); at most 0.01 µg/mL in assay [3]; at most 0.01 µg/mL in assay [4] (setting [10]); at most 0.01 µg/mL against Proteus vulgaris 6897; 0.05 µg/mL (≈ 0.132 µM) against Serratia marcescens T-55 (setting [11]); at most 0.01 µg/mL in the assay with Proteus mirabilis 1287. The minimal inhibitory concentration (MIC) against Pseudomonas putida 264 (Pseudomonas putida 264, pH 7.2) came to 0.05 µg/mL (≈ 0.132 µM); in the assay on Escherichia coli Juhl (setting [12]) it was 0.02 µg/mL (≈ 0.0527 µM); in assay [5] (setting [13]), 25 µg/mL (≈ 65.9 µM); in the assay with Proteus morganii KY 4298 (Proteus morganii KY 4298, pH 7.2) it was 0.02 µg/mL (≈ 0.0527 µM); in the assay with Serratia marcescens T-26 (setting [14]) it was 0.4 µg/mL (≈ 1.05 µM); in [6] (setting [15]) it was 1.56 µg/mL (≈ 4.11 µM). The MIC in the assay with Proteus rettgeri KY 4289 is at most 0.01 µg/mL; in assay [7], 100 µg/mL (≈ 264 µM); in assay [8] (setting [16]) it was 0.02 µg/mL (≈ 0.0527 µM); with Escherichia coli NIHJC-2 (setting [17]), 0.02 µg/mL (≈ 0.0527 µM).

As for `CO/N=C(\C(=O)N[C@@H]1C(=O)N2C(C(=O)O)=CCC[C@H]12)c1csc(N)n1` [A, (+)-cis-7-[2-(2-amino-4-thiazolyl)-2-syn-methoxyiminoacetamido]-1-azabicyclo[4,2,0]oct-2-en-8-on-2-carboxylic acid], the antimicrobial activity result in [1] is “strong antimicrobial activity”. Also, the minimal inhibitory concentration (MIC) in assay [2] (Staphylococcus aureus Smith, pH 7.2) is 6.25 µg/mL (≈ 17.1 µM); in assay [3], at most 0.006 µg/mL; in [4] (Escherichia coli GN2411-5, pH 7.2), 0.01 µg/mL (≈ 0.0274 µM); in the assay with Proteus vulgaris 6897, at most 0.006 µg/mL; in the assay on Serratia marcescens T-55 (setting [11]), 0.02 µg/mL (≈ 0.0547 µM); against Proteus mirabilis 1287, 0.01 µg/mL (≈ 0.0274 µM). Besides, the MIC against Escherichia coli Juhl (Escherichia coli Juhl, pH 7.2) was 0.02 µg/mL (≈ 0.0547 µM); in [5] (Pseudomonas aeruginosa #1, pH 7.2), 6.25 µg/mL (≈ 17.1 µM); in the assay on Proteus morganii KY 4298 (setting [18]), 0.05 µg/mL (≈ 0.137 µM); against Serratia marcescens T-26 (Serratia marcescens T-26, pH 7.2), 0.2 µg/mL (≈ 0.547 µM); in assay [6] (setting [15]), 3.12 µg/mL (≈ 8.54 µM); in the assay with Proteus rettgeri KY 4289, at most 0.006 µg/mL. Besides, the MIC in assay [8] (Klebsiella pneumoniae Y-60, pH 7.2) was found to be 0.02 µg/mL (≈ 0.0547 µM); against Escherichia coli NIHJC-2 (Escherichia coli NIHJC-2, pH 7.2), 0.02 µg/mL (≈ 0.0547 µM).

In the case of `CO/N=C(\C(=O)N[C@@H]1C(=O)N2C(C(=O)O)=C(COC(C)=O)CS[C@H]12)c1csc(N)n1` [C, reference compound], the minimum inhibitory concentration (MIC) was 1.56 µg/mL (≈ 3.43 µM) in assay [2] (Staphylococcus aureus Smith, pH 7.2, read-out: MIC); 1.56 µg/mL (≈ 3.43 µM) in [9]; at most 0.01 µg/mL in assay [3]; 0.05 µg/mL (≈ 0.11 µM) in assay [4] (setting [10]); at most 0.01 µg/mL in the assay on Proteus vulgaris 6897; 0.1 µg/mL (≈ 0.22 µM) in the assay on Serratia marcescens T-55 (Serratia marcescens, T55, pH 7.2, Serratia marcescens T-55, read-out: MIC). Moreover, the minimal inhibitory concentration (MIC) with Proteus mirabilis 1287 was determined as 0.02 µg/mL (≈ 0.0439 µM); with Pseudomonas putida 264 (Pseudomonas putida, 264, pH 7.2, Pseudomonas putida 264, read-out: MIC), 0.1 µg/mL (≈ 0.22 µM); in the assay with Escherichia coli Juhl (setting [12]) it was 0.05 µg/mL (≈ 0.11 µM); in [5] (setting [13]), 6.25 µg/mL (≈ 13.7 µM); in the assay with Proteus morganii KY 4298 (setting [18]) it was 0.05 µg/mL (≈ 0.11 µM); with Serratia marcescens T-26 (setting [14]), 0.78 µg/mL (≈ 1.71 µM). Further, the MIC in assay [6] (Staphylococcus aureus, 209P, pH 7.2, Staphylococcus aureus 209-P, read-out: MIC) was 0.78 µg/mL (≈ 1.71 µM); against Proteus rettgeri KY 4289, at most 0.01 µg/mL; in assay [7], 50 µg/mL (≈ 110 µM); in assay [8] (setting [16]), 0.05 µg/mL (≈ 0.11 µM); in the assay with Escherichia coli NIHJC-2 (setting [17]) it was 0.1 µg/mL (≈ 0.22 µM).
